Experimental data published in patent publication US20070185012A1, “Glycopeptides for the treatment of als and other metabolic and autoimmune disorders” (priority 2003, published 2007).
Like-named read-outs stand apart in the source and are kept apart here.

Experiments:
ALS patients [1] = assay: Case reports of single ALS patients treated with glycopeptide (Examples 1-6)
[2] = Bioavailability, nasal versus oral administration; details: administered via the nasal route, compared with oral
[3] = orally administered; Lyons et al 2000; cited from earlier work
[4] = in vivo; cited from earlier work
mice = details: cited from earlier work
ALS patients [5] = assay: Twenty five ALS patients given aqueous intranasal spray of GMDP-A (Example 7); type: in vivo, human; details: 0.31 mg GMDP-A aqueous intranasal spray
[6] = Example 2: after 5 months of GMDP then GMDP-A
[7] = Example 5: GMDP-A intranasal spray 3 months

Q: Which results are given for `CC(=O)NC1C(OC2C(CO)OC(O)C(NC(C)=O)C2OC(C)C(=O)NC(C)C(=O)NC(CCC(=O)O)C(N)=O)OC(CO)C(O)C1O` [GMDP, N-acetyl-D-glucosaminyl-(β1-4)-N-acetylmuramyl-L-alanylD-isoglutamine]?
A: voluntary motor function (ALS patients [1]; Example 1: 3 months, semi-weekly aqueous oral spray of GMDP): Continued voluntary motor improvement; pulsox after removal of the oxygen (ALS patients [1]; Example 1: 14 hours after first 6 mg GMDP dose, ambient air (82% before therapy), no respiratory distress): 99%; speech (ALS patients [1]; Example 1: after fourth day of 6 mg GMDP, first time in 18 months): began to speak soft-spoken words; voluntary movement (ALS patients [1]; Example 1: day three, 6 mg GMDP aqueous oral spray): able to move all fingers on both hands excluding their thumbs; time until small fingers responded to voluntary challenge (ALS patients [1]; Example 1: day two, additional 6 mg GMDP aqueous oral spray): ≤ 2 h; pulsox (ALS patients [1]; Example 1: person, final stage bulbar onset ALS, on pure oxygen (94% before), 6 mg GMDP aqueous oral spray plus 400 mg luteolin/400 mg rutin four times a day, within 24 hours): 99%-100%; time of peak improvement of voice and energy (ALS patients [1]; Example 2: 10 mg GMDP aqueous oral spray): one; ALS progression (ALS patients [1]; [6]): no progression; time to dramatic improvement of voice and energy (ALS patients [1]; Example 2: person, bulbar onset ALS, on 2000 mg luteolin and 2000 mg rutin per day, 10 mg GMDP aqueous oral spray): ≤ 40 min; time to substantial improvement in leg strength and fasciculations (ALS patients [1]; Example 3: 1.51 mg GMDP intranasally per day, on luteolin/rutin): ≤ 24 h; side effect (ALS patients [1]; Example 3: GMDP taken more frequently than every 96 hours): significant joint and muscle pain; walking distance without AFO (ALS patients [1]; Example 3: after 2 weeks of daily GMDP (before: not over 15 meters with AFO)): up to 200 meters; bioavailability [2]: improved; bioavailability [3]: low bioavailability; pyrogenicity [4]: sufficiently low; LD50 (mice; acute toxicity in mice): 7000 mg/kg

Q: For `CCCCCCCCCCCCCCCCCC(=O)NCCCC[C@H](NC(=O)CC[C@@H](NC(=O)[C@H](C)NC(=O)[C@@H](C)O[C@H]1[C@H](O)[C@@H](CO)OC(O)[C@@H]1NC(C)=O)C(N)=O)C(=O)O` (stereo partly drawn) [muroctasin, reference compound], which LD50 (mice; mice) is on record?
A: 625 mg/kg

Q: With “N-acetyl-D-glucosaminyl-(β1-4)-N-acetylmuramyl-L-alanylD-glutamic acid [GMDP-A]” as the compound, how does the ALS progression (ALS patients [1]; [6]) read?
A: no progression

Q: What about the fasciculations (ALS patients [1]; Example 3: 0.93 mg GMDP-A every 96 hours) of the same compound?
A: major reductions

Q: What about the “ALS progression and symptoms” value (ALS patients [1]; Example 3: 1.42 mg GMDP-A every 96 hours, after 4 months of therapy) of the same compound?
A: abated all progression and symptoms of ALS

Q: What about the arm function (ALS patients [1]; Example 4: 0.942 mg intranasal spray daily) of the same compound?
A: ability to comb their hair and feed themself was restored

Q: What about the reduction in fasciculations (ALS patients [1]; Example 4: 0.942 mg intranasal spray daily, within 2 days) of the same compound?
A: 90%

Q: And the ALS progression (ALS patients [1]; Example 4: for 4 months)?
A: No progression

Q: What about the disease progression (ALS patients [1]; [7]) of the same compound?
A: no progression of disease

Q: And the mobility (ALS patients [1]; [7])?
A: ability to stand with support and walk with a walker

Q: What about the reduction in fasciculations (ALS patients [1]; Example 5: GMDP-A intranasal spray 3 months, 1.24/0.93/0.62/0.31/0.31 mg days one to five, 6 day cycle) of the same compound?
A: 100%

Q: What about the ALS symptoms (ALS patients [1]; Example 6: GMDP-A intranasal spray 1.42 mg every 96 hours, 3 months) of the same compound?
A: cessation of their ALS symptoms

Q: What about the bioavailability [2] of the same compound?
A: improved

Q: And the “time to reported symptom reduction and improvement” value (ALS patients [5])?
A: 24 to 96 h

Q: And the “patients reporting dramatic reductions in symptoms (fasciculations, muscle weakness, fatigue, choking)” value (ALS patients [5]; of twenty five ALS patients, 1-4 months)?
A: Twenty one
